According to article PMC10247784, “Physiological activation of human and mouse bitter taste receptors by bile acids” (Communications Biology, 2023):

Legend:
[1] = target: T1, mouse Tas2r105 (Mus musculus, UniProt Q9JKT4); assay: Calcium imaging assay (FLIPR), HEK293T-Gα16gust44 cells transfected with mouse Tas2r105; type: cell-based; conditions: for Δ F/F: Tas2r105
T1 construct: expressed in transfected cells; host or cells: HEK293T-Gα16gust44
T1 sequence (Q9JKT4 1-300): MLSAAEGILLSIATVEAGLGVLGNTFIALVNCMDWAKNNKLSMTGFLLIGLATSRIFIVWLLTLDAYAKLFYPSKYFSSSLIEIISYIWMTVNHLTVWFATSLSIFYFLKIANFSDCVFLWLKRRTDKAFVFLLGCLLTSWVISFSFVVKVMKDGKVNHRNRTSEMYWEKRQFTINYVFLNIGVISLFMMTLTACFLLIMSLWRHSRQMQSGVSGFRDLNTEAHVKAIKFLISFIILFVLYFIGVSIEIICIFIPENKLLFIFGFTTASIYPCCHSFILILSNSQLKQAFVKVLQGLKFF
Protocol: This set of bile acids was chosen because of their commercial availability in high purities, their diversity within the class of bile acids and their previous detection and quantitation in human blood. Stock solutions were prepared in DMSO.
As basal growth medium for the HEK293T-Gα16gust44 cell line[17],[59] served Dulbecco’s modified eagle medium (DMEM) (Thermo Fisher Scientific, Darmstadt, Germany) supplemented with 10 % fetal bovine serum (Sigma-Aldrich, Steinheim, Germany), 2 mM L-glutamine (Sigma-Aldrich, Steinheim, Germany), 100 units/ml penicillin (Sigma Aldrich, Steinheim, Germany) and 100 µg/ml streptomycin (Sigma Aldrich, Steinheim, Germany). Growth conditions were 37 °C, 5 % CO2 and saturated air-humidity[60].
HEK293T-Gα16gust44 cells were seeded on poly-D-lysine (10 µg/ml) coated 96-well plates to reach a confluence of 40-60 % the next day. For transient transfection 150 ng of plasmid DNA containing the receptor of interest and 0.3 µl lipofectamine 2000 (Thermo Fisher Scientific, Darmstadt, Germany) per well were used and transfection took place according to the manual of lipofectamine 2000. […] The empty vector DNA (mock) was transfected as negative control[14],[41].
Cells were loaded using the calcium-sensitive fluorescent dye Fluo-4-AM (Abcam, Cambridge, Great Britain) in the presence of 2.5 mM probenecid (Sigma-Aldrich, Steinheim, Germany) the day after transfection[13],[41]. 1 h after loading, cells were washed with C1 buffer using a BioTek Cell Washer, incubated in the dark for half an hour and washed again. For automated agonist application and measurement of fluorescence changes, a FLIPR^TETRA device (Molecular Devices, San José, United States) was used. Viability of cells was tested by application of 100 nM Somatostatin 14 (Bachem, Bubendorf, Switzerland)[42].
Measured data were negative control corrected by subtracting the signal of the mock-transfected cells and exported to Microsoft Excel using the FLIPR software ScreenWorks 4.2. In Microsoft Excel software, standardization of maximum fluorescence intensities to the basal fluorescence and normalization to the buffer-only control was done to calculate the relative fluorescence changes (ΔF/F).
Initial screening experiments performed in duplicate wells were confirmed by at least one replication and representative traces were selected for display. All dose-response relationships were determined by three independent experiments (biological replicates) performed in duplicates (technical replicates). Threshold concentrations, defined as lowest substance concentrations leading to statistically significant elevated fluorescence changes in receptor-transfected cells compared with empty vector-transfected cells, were determined using SigmaPlot with Student’s t-test to evaluate statistical significance (p < 0.01).

[2] = tested on: T2R02 of Latimeria chalumnae; design: method as in PMID 33355666; conditions: cited from earlier work

- Δ F/F ([1]; conc. 0,01 mM): 0.004381
- Δ F/F ([1]; conc. 0,1 mM): 0.01642
- Δ F/F ([1]; conc. 0,03 mM): 0.01245
- Δ F/F ([1]; conc. 0,3 mM): 0.0274
- Δ F/F ([1]; conc. 0,001 mM): 0.003279
- Δ F/F ([1]; conc. 1 mM): 0.07136
- Δ F/F ([1]; conc. 0,003 mM): -0.003104
- RLU ([1]; Time 0 s): 0 RLU
- RLU ([1]; Time 2 s): -27.0595 RLU
- RLU ([1]; Time 4 s): -18.6603 RLU
- RLU ([1]; Time 6 s): -18.2123 RLU
- RLU ([1]; Time 8 s): -47.8563 RLU
- RLU ([1]; Time 12 s): -34.2819 RLU
- RLU ([1]; Time 14 s): -34.7557 RLU
- RLU ([1]; Time 16 s): -23.6188 RLU
- RLU ([1]; Time 18 s): -16.5747 RLU
- RLU ([1]; Time 18.781 s): -3.899 RLU
- RLU ([1]; Time 20.781 s): -20.1413 RLU
- RLU ([1]; Time 22.781 s): -4.143 RLU
- RLU ([1]; Time 24.781 s): 15.6549 RLU
- RLU ([1]; Time 26.781 s): 13.7683 RLU
- RLU ([1]; Time 28.781 s): 17.1414 RLU
- RLU ([1]; Time 30.781 s): 33.1924 RLU
- RLU ([1]; Time 32.781 s): 40.0682 RLU
- RLU ([1]; Time 34.781 s): 38.6999 RLU
- RLU ([1]; Time 36.781 s): 117.771 RLU
- RLU ([1]; Time 38.781 s): 121.11 RLU
- RLU ([1]; Time 40.781 s): 113.511 RLU
- RLU ([1]; Time 42.781 s): 141.314 RLU
- RLU ([1]; Time 44.781 s): 160.969 RLU
- RLU ([1]; Time 46.781 s): 200.571 RLU
- RLU ([1]; Time 48.781 s): 228.76 RLU
- RLU ([1]; Time 50.781 s): 238.054 RLU
- RLU ([1]; Time 52.781 s): 279.774 RLU
- RLU ([1]; Time 54.781 s): 314.942 RLU
- RLU ([1]; Time 56.781 s): 299.791 RLU
- RLU ([1]; Time 58.781 s): 350.668 RLU
- RLU ([1]; Time 60.781 s): 363.761 RLU
- RLU ([1]; Time 62.781 s): 387.64 RLU
- RLU ([1]; Time 64.781 s): 388.62 RLU
- RLU ([1]; Time 66.781 s): 424.095 RLU
- RLU ([1]; Time 68.781 s): 419.549 RLU
- RLU ([1]; Time 70.781 s): 443.973 RLU
- RLU ([1]; Time 72.781 s): 413.221 RLU
- RLU ([1]; Time 74.781 s): 419.192 RLU
- RLU ([1]; Time 76.781 s): 460.126 RLU
- RLU ([1]; Time 78.781 s): 478.685 RLU
- RLU ([1]; Time 80.781 s): 487.49 RLU
- RLU ([1]; Time 82.781 s): 529.97 RLU
- RLU ([1]; Time 84.781 s): 535.792 RLU
- RLU ([1]; Time 86.781 s): 528.828 RLU
- RLU ([1]; Time 88.781 s): 565.311 RLU
- RLU ([1]; Time 90.781 s): 546.96 RLU
- RLU ([1]; Time 92.781 s): 541.782 RLU
- RLU ([1]; Time 94.781 s): 524.334 RLU
- RLU ([1]; Time 96.781 s): 507.8 RLU
- RLU ([1]; Time 98.781 s): 505.738 RLU
- RLU ([1]; Time 100.781 s): 510.912 RLU
- RLU ([1]; Time 102.781 s): 470.239 RLU
- RLU ([1]; Time 104.781 s): 497.869 RLU
- RLU ([1]; Time 106.781 s): 500.977 RLU
- RLU ([1]; Time 108.781 s): 492.243 RLU
- RLU ([1]; Time 110.781 s): 525.903 RLU
- RLU ([1]; Time 112.781 s): 501.6 RLU
- RLU ([1]; Time 114.781 s): 517.173 RLU
- RLU ([1]; Time 116.781 s): 514.443 RLU
- RLU ([1]; Time 118.781 s): 515.53 RLU
- RLU ([1]; Time 120.781 s): 497.17 RLU
- RLU ([1]; Time 122.781 s): 525.829 RLU
- RLU ([1]; Time 124.781 s): 530.193 RLU
- RLU ([1]; Time 126.781 s): 525.829 RLU
- RLU ([1]; Time 128.781 s): 520.174 RLU
- RLU ([1]; Time 130.781 s): 519.565 RLU
- RLU ([1]; Time 132.781 s): 551.214 RLU
- RLU ([1]; Time 134.781 s): 551.693 RLU
- RLU ([1]; Time 136.781 s): 519.874 RLU
- RLU ([1]; Time 137.578 s): 524.174 RLU
- RLU ([1]; Time 143.578 s): 517.004 RLU
- RLU ([1]; Time 149.578 s): 507.474 RLU
- RLU ([1]; Time 155.578 s): 522.299 RLU
- RLU ([1]; Time 161.578 s): 476.762 RLU
- RLU ([1]; Time 167.578 s): 499.828 RLU
- RLU ([1]; Time 173.578 s): 455.735 RLU
- RLU ([1]; Time 179.578 s): 459.26 RLU
- RLU ([1]; Time 185.578 s): 429.678 RLU
- RLU ([1]; Time 191.578 s): 409.042 RLU
- RLU ([1]; Time 197.578 s): 394.775 RLU
- RLU ([1]; Time 203.578 s): 421.467 RLU
- RLU ([1]; Time 209.578 s): 379.61 RLU
- RLU ([1]; Time 215.578 s): 405.275 RLU
- RLU ([1]; Time 221.578 s): 372.014 RLU
- RLU ([1]; Time 227.578 s): 339.525 RLU
- RLU ([1]; Time 233.578 s): 348.807 RLU
- RLU ([1]; Time 239.578 s): 313.214 RLU
- RLU ([1]; Time 245.578 s): 300.083 RLU
- RLU ([1]; Time 293.578 s): 317.696 RLU
- RLU ([1]; Time 299.578 s): 309.428 RLU
- RLU ([1]; Time 305.578 s): 321.267 RLU
- RLU ([1]; Time 311.578 s): 329.776 RLU
- RLU ([1]; Time 317.578 s): 375.676 RLU
- RLU ([1]; Time 323.578 s): 369.197 RLU
- RLU ([1]; Time 329.578 s): 335.975 RLU
- RLU ([1]; Time 335.578 s): 363.52 RLU
- RLU ([1]; Time 341.578 s): 327.284 RLU
- RLU ([1]; Time 347.578 s): 338.669 RLU
- RLU ([1]; Time 353.578 s): 324.825 RLU
- RLU ([1]; Time 359.578 s): 287.782 RLU
- Activation threshold concentration Tas2r105 ([1]; p < 0.01 vs empty vector): 300 µM
SMILES: C[C@H](CCC(=O)NCC(=O)O)[C@H]1CC[C@H]2[C@@H]3[C@H](O)C[C@@H]4C[C@H](O)CC[C@]4(C)[C@H]3C[C@H](O)[C@]12C [Glycocholic Acid, glycocholic acid]
- Activation of T2R02 [2]: activate
